Where “and” joins values, the source holds several entries; their conditions need not be identical. Identical values can stand only once. Results filed as inconclusive are left out. The calls were made as follows: active = survival T/C of 150% or more; inactive = T/C below 125% in these data.
Tested on: Madison 109 lung carcinoma i.m., mice, median survival
Test: NCI In Vivo Anticancer Drug Screen. Data for tumor model Madison 109 Lung Carcinoma (intramuscular) in unknown mice
Conditions: endpoint: median survival time, higher = longer survival
Description: The antitumor activity of compounds was measured in mice bearing transplantable tumors. Survival or tumor size were measured and the results are expressed as the measurement made in the treated group (T) divided by the measurement made in the vehicle treated control group (C). The tumor model used in this assay is Madison 109 Lung Carcinoma (intramuscular) in unknown mice

[1] = dose: 10.0 mg/kg/injection, schedule: Q02DX009 (ip), vehicle: water
[2] = dose: 20.0 mg/kg/injection, schedule: Q02DX009 (ip), vehicle: water
[3] = dose: 80.0 mg/kg/injection, schedule: Q02DX009 (ip), vehicle: water
[4] = dose: 400.0 mg/kg/injection, schedule: Q01DX009 (ip), vehicle: other
[5] = dose: 10.0 mg/kg/injection, schedule: Q01DX009 (ip), vehicle: water
[6] = dose: 40.0 mg/kg/injection, schedule: Q01DX009 (ip), vehicle: water
[7] = dose: 80.0 mg/kg/injection, schedule: Q01DX009 (ip), vehicle: water
[8] = dose: 5.0 mg/kg/injection, schedule: Q01DX001 (ip), vehicle: saline
[9] = dose: 8.4 mg/kg/injection, schedule: Q01DX001 (ip), vehicle: saline
[10] = dose: 14.0 mg/kg/injection, schedule: Q01DX001 (ip), vehicle: saline

Measured: T/C

C1CN1c1nc(N2CC2)nc(N2CC2)n1
inactive: dose: 0.02 mg/kg/injection, schedule: Q01DX009 (ip), vehicle: saline 101 % of control | dose: 0.05 mg/kg/injection, schedule: Q01DX009 (ip), vehicle: saline 110 % of control | dose: 0.1 mg/kg/injection, schedule: Q01DX009 (ip), vehicle: saline 112 % of control | dose: 0.2 mg/kg/injection, schedule: Q01DX009 (ip), vehicle: saline 102 % of control

CCN(CC)CCOc1ccc2c(c1)C(=O)c1cc(OCCN(CC)CC)ccc1-2
inactive: dose: 25.0 mg/kg/injection, schedule: Q04DX009 (ip), vehicle: Klucel (hydroxypropylcellulose) (HPC) 111 % of control | dose: 50.0 mg/kg/injection, schedule: Q04DX009 (ip), vehicle: Klucel (hydroxypropylcellulose) (HPC) 114 % of control | dose: 75.0 mg/kg/injection, schedule: Q04DX009 (ip), vehicle: Klucel (hydroxypropylcellulose) (HPC) 102 % of control

O=[N+]([O-])c1cccc([N+](=O)[O-])c1Cl
inactive: [1] 105 % of control | [2] 113 % of control | [3] 122 % of control | dose: 160.0 mg/kg/injection, schedule: Q02DX009 (ip), vehicle: water 112 % of control and 103 % of control

NC(=O)c1cn[nH]c1N
inactive: dose: 50.0 mg/kg/injection, schedule: Q01DX009 (ip), vehicle: other 97 % of control | dose: 100.0 mg/kg/injection, schedule: Q01DX009 (ip), vehicle: other 94 % of control | dose: 200.0 mg/kg/injection, schedule: Q01DX009 (ip), vehicle: other 92 % of control | [4] 102 % of control

O=[N+]([O-])c1ccc([N+](=O)[O-])c(Cl)c1
inactive: [1] 122 % of control | [2] 122 % of control | dose: 40.0 mg/kg/injection, schedule: Q02DX009 (ip), vehicle: water 122 % of control | [3] 90 % of control

COc1ccc(C[C@H](N)C(=O)NC2C(CO)OC(n3cnc4c(N(C)C)ncnc43)C2O)cc1 (some centres undefined)
inactive: [5] 104 % of control | dose: 20.0 mg/kg/injection, schedule: Q01DX009 (ip), vehicle: water 105 % of control | [6] 104 % of control | [7] 105 % of control

Cc1c(N)nc([C@H](CC(N)=O)NC[C@H](N)C(N)=O)nc1C(=O)N[C@H](C(=O)N[C@H](C)[C@@H](O)[C@H](C)C(=O)N[C@H](C(=O)NCCc1nc(-c2nc(C(=O)NCCC[S+](C)C)cs2)cs1)[C@@H](C)O)C(OC1OC(CO)C(O)C(O)C1OC1OC(CO)C(O)C(OC(N)=O)C1O)c1cnc[nH]1 (some centres undefined)
inactive: dose: 2.5 mg/kg/injection, schedule: Q04DX003 (ip), vehicle: saline 120 % of control | dose: 5.0 mg/kg/injection, schedule: Q04DX003 (ip), vehicle: saline 123 % of control | dose: 20.0 mg/kg/injection, schedule: Q04DX003 (ip), vehicle: saline 108 % of control | dose: 30.0 mg/kg/injection, schedule: Q04DX003 (ip), vehicle: saline 100 % of control

O=[N+]([O-])c1ccc(Cl)c([N+](=O)[O-])c1
inactive: [5] 119 % of control | dose: 40.0 mg/kg/injection, schedule: Q01DX001 (ip), vehicle: water 116 % of control | [6] 119 % of control | dose: 80.0 mg/kg/injection, schedule: Q01DX001 (ip), vehicle: water 100 % of control | [7] 109 % of control | dose: 160.0 mg/kg/injection, schedule: Q01DX001 (ip), vehicle: water 109 % of control | dose: 160.0 mg/kg/injection, schedule: Q01DX009 (ip), vehicle: water 116 % of control | dose: 320.0 mg/kg/injection, schedule: Q01DX001 (ip), vehicle: water 119 % of control | dose: 640.0 mg/kg/injection, schedule: Q01DX001 (ip), vehicle: water 90 % of control

O=C1OC(C(O)CO)C(O)=C1O (centres undefined)
inactive: [4] 98 % of control | dose: 800.0 mg/kg/injection, schedule: Q01DX009 (ip), vehicle: other 96 % of control | dose: 1600.0 mg/kg/injection, schedule: Q01DX009 (ip), vehicle: other 98 % of control

Nc1n[nH]c(N)n1
inactive: dose: 300.0 mg/kg/injection, schedule: Q01DX009 (ip), vehicle: water 118 % of control | dose: 500.0 mg/kg/injection, schedule: Q01DX009 (ip), vehicle: water 118 % of control | dose: 600.0 mg/kg/injection, schedule: Q01DX009 (ip), vehicle: water 100 % of control

OC(CBr)C(O)C(O)C(O)CBr (centres undefined)
inactive: dose: 25.0 mg/kg/injection, schedule: Q01DX009 (ip), vehicle: Klucel (hydroxypropylcellulose) (HPC) 94 % of control | dose: 50.0 mg/kg/injection, schedule: Q01DX009 (ip), vehicle: Klucel (hydroxypropylcellulose) (HPC) 123 % of control | dose: 100.0 mg/kg/injection, schedule: Q01DX009 (ip), vehicle: Klucel (hydroxypropylcellulose) (HPC) 117 % of control

c1ccc([C@H]2CN3CCSC3=N2)cc1
inactive: dose: 0.75 mg/kg/injection, schedule: Q01DX009 (ip), vehicle: water 114 % of control | dose: 1.5 mg/kg/injection, schedule: Q01DX009 (ip), vehicle: water 122 % of control | dose: 3.0 mg/kg/injection, schedule: Q01DX009 (ip), vehicle: water 97 % of control | dose: 6.0 mg/kg/injection, schedule: Q01DX009 (ip), vehicle: water 108 % of control

CN(Cc1cnc2nc(N)nc(N)c2n1)c1ccc(C(=O)N[C@@H](CCC(=O)O)C(=O)O)cc1
inactive: dose: 0.07 mg/kg/injection, schedule: Q01DX009 (ip), vehicle: sodium bicarbonate 99 % of control | dose: 0.15 mg/kg/injection, schedule: Q01DX009 (ip), vehicle: sodium bicarbonate 123 % of control | dose: 0.3 mg/kg/injection, schedule: Q01DX009 (ip), vehicle: sodium bicarbonate 108 % of control | dose: 0.6 mg/kg/injection, schedule: Q01DX009 (ip), vehicle: sodium bicarbonate 111 % of control

O=S(=O)(n1ccnc1)C(F)(F)F
inactive: [8] 98 % of control | [9] 88 % of control | [10] 92 % of control

O=CC(NC(=O)N(CCCl)N=O)C(O)C(O)C(O)CO (centres undefined)
inactive: [8] 108 % of control | [9] 106 % of control | [10] 105 % of control | dose: 23.0 mg/kg/injection, schedule: Q01DX001 (ip), vehicle: saline 96 % of control

COC1=C(N)C(=O)c2nc(-c3nc(C(=O)O)c(C)c(-c4ccc(OC)c(OC)c4O)c3N)ccc2C1=O
inactive: dose: 2.0 micrograms/kg/injection, schedule: Q01DX009 (ip), vehicle: other 102 % of control | dose: 5.0 micrograms/kg/injection, schedule: Q01DX009 (ip), vehicle: other 103 % of control and 111 % of control | dose: 10.0 micrograms/kg/injection, schedule: Q01DX009 (ip), vehicle: other 106 % of control and 116 % of control | dose: 20.0 micrograms/kg/injection, schedule: Q01DX009 (ip), vehicle: other 115 % of control and 117 % of control | dose: 30.0 micrograms/kg/injection, schedule: Q01DX009 (ip), vehicle: other 109 % of control

NC(C=O)C(O)C(O)C(O)CO (centres undefined)
inactive: dose: 400.0 mg/kg/injection, schedule: Q01DX009 (ip), vehicle: saline 98 % of control | dose: 800.0 mg/kg/injection, schedule: Q01DX009 (ip), vehicle: saline 93 % of control | dose: 1600.0 mg/kg/injection, schedule: Q01DX009 (ip), vehicle: saline 96 % of control | dose: 3200.0 mg/kg/injection, schedule: Q01DX009 (ip), vehicle: saline 110 % of control

— PubChem BioAssay AID300 (DTP/NCI, 2004)
